The source made the active and inactive calls.
Legend:
[1] = test system: Escherichia coli; experiment: microbe, parasite or virus in culture
[2] = target: T1, Carboxy-terminal domain RNA polymerase II polypeptide A small phosphatase 1 (Homo sapiens, UniProt Q9GZU7); experiment: inhibitors of CTDSP1, concentration-response testing, biochemical assay, absorbance-based, actives from ultra-high-throughput screening (AID 540297); format: functional
T1 sequence (Q9GZU7 whole entry): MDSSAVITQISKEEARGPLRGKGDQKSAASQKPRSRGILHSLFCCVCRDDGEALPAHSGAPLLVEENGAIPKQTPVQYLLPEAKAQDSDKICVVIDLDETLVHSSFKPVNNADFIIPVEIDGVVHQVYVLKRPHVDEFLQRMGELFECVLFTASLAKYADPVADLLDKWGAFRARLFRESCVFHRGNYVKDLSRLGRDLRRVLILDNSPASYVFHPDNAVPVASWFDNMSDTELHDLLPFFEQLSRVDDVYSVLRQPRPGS

[3] = target: Voltage-dependent T-type calcium channel subunit alpha-1H (Homo sapiens, UniProt O95180); format: functional;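 note: channel activity triggered by adding a high calcium stimulation buffer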
[4] = growth suppression of PTEN-null colon cells, dose response, cell-based, HCT116 PTEN knockout (AID 1047); format: functional;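 note: HCT116 colon tumor cells with PTEN knocked out; cells exposed to compound for 60 hours before readout; potency for loss of cell viability measured by luminescence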
[5] = growth suppression of beta-catenin-knockout colon cells, dose response, cell-based, HCT116, human colon tumor (AID 1045); format: functional;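 note: HCT116 colon tumor cells with beta catenin knocked out; cells exposed to compound for 60 hours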
[6] = target: T2, High affinity choline transporter 1 (Homo sapiens, UniProt Q9GZV3); experiment: CHT inhibitors, dose response, cell-based, 5-point CRC, membrane potential dye (AID 504840); format: functional
T2 sequence (Q9GZV3 whole entry): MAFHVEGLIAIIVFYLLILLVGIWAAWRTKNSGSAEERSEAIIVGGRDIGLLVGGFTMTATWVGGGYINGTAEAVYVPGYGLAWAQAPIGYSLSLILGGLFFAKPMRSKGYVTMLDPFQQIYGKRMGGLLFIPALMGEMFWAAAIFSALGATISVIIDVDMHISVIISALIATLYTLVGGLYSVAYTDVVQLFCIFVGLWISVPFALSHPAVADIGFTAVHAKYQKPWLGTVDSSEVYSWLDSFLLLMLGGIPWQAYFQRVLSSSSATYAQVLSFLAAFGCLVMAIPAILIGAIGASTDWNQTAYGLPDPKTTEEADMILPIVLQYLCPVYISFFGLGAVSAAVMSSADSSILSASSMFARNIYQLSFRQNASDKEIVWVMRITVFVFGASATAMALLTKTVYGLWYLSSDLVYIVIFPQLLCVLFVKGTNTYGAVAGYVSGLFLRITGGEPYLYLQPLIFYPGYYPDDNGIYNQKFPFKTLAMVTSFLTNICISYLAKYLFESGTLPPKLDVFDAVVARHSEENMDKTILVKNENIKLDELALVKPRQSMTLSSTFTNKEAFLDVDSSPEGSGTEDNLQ

[7] = target: Genome polyprotein (dengue virus type 2, UniProt P29990); experiment: Dengue-2 NS5 methyltransferase inhibitors, primary screen, biochemical, confirmation dose response (AID 588689); format: functional
[8] = THP-1 cell cytotoxicity, dose response, cytotoxicity control for non-replicating M. tuberculosis project (AID 489025); format: functional
[9] = target: T3, Heat shock factor protein 1 (Mus musculus, UniProt P38532); experiment: HSF1 potentiators in luciferase reporter cells, confirmation, cell-based, NIH3T3, luminescence, dose retest (AID 435004); format: functional;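 note: stress induced by proteasome inhibitor MG132 added 30 min after compound; luciferase reporter driven by HSF1 response element in NIH3T3 cells; actives raise luminescence as potentiators of the MG132 stress response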
T3 sequence (P38532 whole entry): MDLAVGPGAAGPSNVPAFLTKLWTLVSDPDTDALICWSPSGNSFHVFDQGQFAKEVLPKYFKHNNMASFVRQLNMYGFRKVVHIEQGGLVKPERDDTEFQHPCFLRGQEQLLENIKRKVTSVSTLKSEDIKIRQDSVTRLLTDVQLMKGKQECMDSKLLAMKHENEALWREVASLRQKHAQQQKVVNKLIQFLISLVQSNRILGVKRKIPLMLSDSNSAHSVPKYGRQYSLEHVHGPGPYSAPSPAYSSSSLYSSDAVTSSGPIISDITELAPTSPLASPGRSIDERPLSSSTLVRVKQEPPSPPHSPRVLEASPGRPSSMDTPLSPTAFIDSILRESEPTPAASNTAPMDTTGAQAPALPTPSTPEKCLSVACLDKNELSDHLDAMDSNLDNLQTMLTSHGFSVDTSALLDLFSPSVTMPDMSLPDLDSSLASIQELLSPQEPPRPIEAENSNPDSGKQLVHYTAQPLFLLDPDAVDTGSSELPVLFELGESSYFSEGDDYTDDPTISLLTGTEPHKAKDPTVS

[10] = target: T4, Short transient receptor potential channel 4 (Mus musculus, UniProt Q9QUQ5); experiment: mouse TRPC4 channel inhibitors, dose response, cell-based, HEK293 TRPC4/mu-opioid, Fluo-4 calcium (AID 434942); format: functional;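 note: potency of inhibitors blocking the TRPC4 calcium response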
T4 sequence (Q9QUQ5 whole entry): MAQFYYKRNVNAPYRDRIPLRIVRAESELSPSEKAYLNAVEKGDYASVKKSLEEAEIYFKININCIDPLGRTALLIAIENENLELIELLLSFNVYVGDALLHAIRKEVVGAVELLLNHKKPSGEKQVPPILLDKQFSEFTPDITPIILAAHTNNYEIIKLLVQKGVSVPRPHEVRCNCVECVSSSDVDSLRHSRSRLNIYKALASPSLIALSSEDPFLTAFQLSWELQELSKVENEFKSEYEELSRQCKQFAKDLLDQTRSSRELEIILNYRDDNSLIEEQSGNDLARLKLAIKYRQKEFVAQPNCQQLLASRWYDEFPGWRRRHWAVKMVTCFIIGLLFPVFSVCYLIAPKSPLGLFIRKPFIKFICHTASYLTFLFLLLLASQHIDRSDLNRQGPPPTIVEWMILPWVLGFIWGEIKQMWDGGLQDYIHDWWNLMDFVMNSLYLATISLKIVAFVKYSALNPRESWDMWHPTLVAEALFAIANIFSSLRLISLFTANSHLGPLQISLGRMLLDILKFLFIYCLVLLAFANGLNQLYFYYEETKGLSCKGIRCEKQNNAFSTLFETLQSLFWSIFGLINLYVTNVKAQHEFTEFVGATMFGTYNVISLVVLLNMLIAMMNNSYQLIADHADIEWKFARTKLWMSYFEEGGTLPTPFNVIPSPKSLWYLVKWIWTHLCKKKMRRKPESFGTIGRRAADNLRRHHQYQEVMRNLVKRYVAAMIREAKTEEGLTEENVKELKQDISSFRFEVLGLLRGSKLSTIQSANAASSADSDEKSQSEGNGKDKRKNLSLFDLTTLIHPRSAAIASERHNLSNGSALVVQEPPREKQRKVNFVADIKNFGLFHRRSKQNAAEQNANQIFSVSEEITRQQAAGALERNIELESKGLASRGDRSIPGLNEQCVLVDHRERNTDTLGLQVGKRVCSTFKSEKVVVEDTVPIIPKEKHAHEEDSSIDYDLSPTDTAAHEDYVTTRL

[11] = target: T5, Hexokinase (Trypanosoma brucei, UniProt Q38C41); experiment: Confirmation assay for inhibitors of Trypanosoma brucei hexokinase 1-Analogue-first series. [Related pubchem assays (depositor defined):AID1430, AID1632, AID2516, AID2560, AID2579, AID2600, AID449725, AID492951]; format: functional
T5 sequence (Q38C41 whole entry): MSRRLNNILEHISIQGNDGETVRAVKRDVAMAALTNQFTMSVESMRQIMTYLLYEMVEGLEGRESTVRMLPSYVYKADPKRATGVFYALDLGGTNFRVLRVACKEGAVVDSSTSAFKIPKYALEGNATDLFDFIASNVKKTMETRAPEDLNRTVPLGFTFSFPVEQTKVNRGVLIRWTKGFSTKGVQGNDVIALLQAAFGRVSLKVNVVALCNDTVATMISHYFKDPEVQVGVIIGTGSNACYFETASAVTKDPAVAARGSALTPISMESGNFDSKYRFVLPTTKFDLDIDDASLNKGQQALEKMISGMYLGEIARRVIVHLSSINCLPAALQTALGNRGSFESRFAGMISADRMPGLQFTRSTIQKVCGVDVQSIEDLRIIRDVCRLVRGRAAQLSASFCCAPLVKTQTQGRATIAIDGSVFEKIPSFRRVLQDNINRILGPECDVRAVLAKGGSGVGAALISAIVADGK

[12] = HEp-2 cell cytotoxicity, dose response, cytotoxicity control for RSV inhibitor project, HTS (AID 2410); format: functional; conditions: human respiratory syncytial virus
[13] = test system: Streptococcus sp. 'group A'; experiment: growth inhibition of control SK(-) GAS strain, dose response, counter-screen for streptokinase expression inhibitor project, luminescence, kanamycin, BacTiterGlo, confirmation (AID 1900); format: functional, organism-based
[14] = target: T6, Streptokinase A (Streptococcus pyogenes serotype M1, UniProt P10520); experiment: S. pyogenes streptokinase expression inhibitors, potency, dose response, plasminogen activation absorbance, OD405 (AID 1914); format: functional, Streptococcus pyogenes M1 GAS;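 note: secreted streptokinase activity via plasminogen activation per viability signal from cell pellet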
T6 sequence (P10520 whole entry): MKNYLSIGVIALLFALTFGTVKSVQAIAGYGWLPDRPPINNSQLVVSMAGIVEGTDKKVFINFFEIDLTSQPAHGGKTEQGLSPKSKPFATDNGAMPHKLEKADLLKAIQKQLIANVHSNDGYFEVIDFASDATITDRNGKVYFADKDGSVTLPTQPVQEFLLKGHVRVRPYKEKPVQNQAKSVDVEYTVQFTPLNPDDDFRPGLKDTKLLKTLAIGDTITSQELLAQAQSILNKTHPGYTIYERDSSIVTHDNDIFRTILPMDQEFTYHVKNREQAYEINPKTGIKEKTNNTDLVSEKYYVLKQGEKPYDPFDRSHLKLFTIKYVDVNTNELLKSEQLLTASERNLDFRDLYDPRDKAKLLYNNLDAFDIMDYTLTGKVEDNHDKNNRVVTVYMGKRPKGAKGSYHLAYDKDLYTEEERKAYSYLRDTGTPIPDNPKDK

[15] = test system: Streptococcus; experiment: Group A Streptococcus viability loss, dose response, counter-screen for streptokinase expression inhibitor project, luminescence, BacTiterGlo (AID 1915); format: functional, organism-based;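 note: potency for reduction of bacterial viability or growth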
[16] = cells
[17] = target: Cytochrome P450 2C9 (Homo sapiens, UniProt P11712)
Chain of Cytochrome P450 2C9 (P11712 whole entry): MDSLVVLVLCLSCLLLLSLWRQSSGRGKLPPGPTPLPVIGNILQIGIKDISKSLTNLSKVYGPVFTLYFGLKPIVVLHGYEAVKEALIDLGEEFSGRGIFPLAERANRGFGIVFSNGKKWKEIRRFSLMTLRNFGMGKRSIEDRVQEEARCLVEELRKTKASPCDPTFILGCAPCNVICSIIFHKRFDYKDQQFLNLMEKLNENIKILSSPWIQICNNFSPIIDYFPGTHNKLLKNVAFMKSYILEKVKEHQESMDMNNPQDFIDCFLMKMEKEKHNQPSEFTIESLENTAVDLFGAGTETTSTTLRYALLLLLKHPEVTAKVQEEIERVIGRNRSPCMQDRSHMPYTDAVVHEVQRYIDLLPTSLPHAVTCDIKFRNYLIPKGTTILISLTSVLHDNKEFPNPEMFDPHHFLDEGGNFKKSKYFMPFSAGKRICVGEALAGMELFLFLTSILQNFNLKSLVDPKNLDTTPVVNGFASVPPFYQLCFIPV

Chain of Voltage-dependent T-type calcium channel subunit alpha-1H (O95180 whole entry): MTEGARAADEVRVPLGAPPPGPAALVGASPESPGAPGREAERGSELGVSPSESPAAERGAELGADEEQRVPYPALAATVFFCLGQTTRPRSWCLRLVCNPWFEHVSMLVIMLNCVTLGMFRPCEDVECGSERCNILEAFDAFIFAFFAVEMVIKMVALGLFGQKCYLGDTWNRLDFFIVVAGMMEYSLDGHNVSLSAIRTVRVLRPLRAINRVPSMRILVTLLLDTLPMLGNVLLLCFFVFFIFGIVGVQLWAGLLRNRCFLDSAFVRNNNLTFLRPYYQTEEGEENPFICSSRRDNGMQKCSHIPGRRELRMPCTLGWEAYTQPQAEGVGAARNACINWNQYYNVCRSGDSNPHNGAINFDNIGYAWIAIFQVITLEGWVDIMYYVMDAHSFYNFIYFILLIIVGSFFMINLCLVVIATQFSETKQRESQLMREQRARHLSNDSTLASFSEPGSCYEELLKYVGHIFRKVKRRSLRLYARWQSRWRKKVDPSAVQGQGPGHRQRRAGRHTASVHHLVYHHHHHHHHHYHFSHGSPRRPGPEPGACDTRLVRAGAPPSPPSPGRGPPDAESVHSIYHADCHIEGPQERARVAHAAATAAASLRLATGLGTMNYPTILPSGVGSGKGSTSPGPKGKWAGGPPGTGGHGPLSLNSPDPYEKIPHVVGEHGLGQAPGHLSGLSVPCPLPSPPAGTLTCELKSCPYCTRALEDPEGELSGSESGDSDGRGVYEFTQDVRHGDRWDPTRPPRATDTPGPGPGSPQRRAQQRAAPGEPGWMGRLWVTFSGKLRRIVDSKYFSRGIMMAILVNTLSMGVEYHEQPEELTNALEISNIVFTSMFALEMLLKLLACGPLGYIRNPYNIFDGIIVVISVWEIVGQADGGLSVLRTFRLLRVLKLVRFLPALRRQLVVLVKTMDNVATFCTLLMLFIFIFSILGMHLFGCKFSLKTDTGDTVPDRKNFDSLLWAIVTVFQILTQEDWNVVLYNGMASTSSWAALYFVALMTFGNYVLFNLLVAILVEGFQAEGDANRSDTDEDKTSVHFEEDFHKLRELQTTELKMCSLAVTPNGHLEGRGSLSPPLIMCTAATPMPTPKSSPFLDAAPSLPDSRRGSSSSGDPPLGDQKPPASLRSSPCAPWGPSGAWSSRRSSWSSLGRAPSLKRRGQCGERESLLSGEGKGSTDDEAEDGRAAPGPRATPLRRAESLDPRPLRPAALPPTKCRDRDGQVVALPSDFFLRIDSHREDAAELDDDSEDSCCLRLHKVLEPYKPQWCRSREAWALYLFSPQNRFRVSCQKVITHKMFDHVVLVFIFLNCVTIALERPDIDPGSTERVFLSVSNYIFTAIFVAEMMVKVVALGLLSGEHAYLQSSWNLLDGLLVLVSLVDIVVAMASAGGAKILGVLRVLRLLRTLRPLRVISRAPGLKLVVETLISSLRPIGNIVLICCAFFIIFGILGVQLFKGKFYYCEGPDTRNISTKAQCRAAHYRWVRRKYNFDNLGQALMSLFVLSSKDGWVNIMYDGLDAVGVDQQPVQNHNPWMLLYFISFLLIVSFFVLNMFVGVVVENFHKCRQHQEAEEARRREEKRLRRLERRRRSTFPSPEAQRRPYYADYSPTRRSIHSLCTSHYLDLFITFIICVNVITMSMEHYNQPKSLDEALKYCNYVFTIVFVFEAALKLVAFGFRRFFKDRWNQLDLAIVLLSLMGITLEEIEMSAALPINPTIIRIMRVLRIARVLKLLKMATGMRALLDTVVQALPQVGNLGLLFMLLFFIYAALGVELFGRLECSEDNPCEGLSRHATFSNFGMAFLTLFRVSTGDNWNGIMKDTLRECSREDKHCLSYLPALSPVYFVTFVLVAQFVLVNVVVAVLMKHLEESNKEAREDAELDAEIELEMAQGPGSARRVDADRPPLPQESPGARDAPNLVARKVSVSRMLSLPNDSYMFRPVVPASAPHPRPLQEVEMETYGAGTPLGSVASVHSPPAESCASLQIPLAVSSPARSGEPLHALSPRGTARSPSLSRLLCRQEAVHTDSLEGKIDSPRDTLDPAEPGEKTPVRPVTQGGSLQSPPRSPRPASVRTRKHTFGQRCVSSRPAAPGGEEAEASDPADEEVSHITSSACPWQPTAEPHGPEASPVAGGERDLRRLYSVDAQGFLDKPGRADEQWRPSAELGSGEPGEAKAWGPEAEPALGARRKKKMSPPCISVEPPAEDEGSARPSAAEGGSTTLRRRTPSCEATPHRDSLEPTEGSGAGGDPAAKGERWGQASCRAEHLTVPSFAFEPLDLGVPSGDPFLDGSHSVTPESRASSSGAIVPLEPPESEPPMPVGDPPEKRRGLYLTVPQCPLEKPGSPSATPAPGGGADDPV
Chain of Genome polyprotein (P29990 2492-3391 limits assumed): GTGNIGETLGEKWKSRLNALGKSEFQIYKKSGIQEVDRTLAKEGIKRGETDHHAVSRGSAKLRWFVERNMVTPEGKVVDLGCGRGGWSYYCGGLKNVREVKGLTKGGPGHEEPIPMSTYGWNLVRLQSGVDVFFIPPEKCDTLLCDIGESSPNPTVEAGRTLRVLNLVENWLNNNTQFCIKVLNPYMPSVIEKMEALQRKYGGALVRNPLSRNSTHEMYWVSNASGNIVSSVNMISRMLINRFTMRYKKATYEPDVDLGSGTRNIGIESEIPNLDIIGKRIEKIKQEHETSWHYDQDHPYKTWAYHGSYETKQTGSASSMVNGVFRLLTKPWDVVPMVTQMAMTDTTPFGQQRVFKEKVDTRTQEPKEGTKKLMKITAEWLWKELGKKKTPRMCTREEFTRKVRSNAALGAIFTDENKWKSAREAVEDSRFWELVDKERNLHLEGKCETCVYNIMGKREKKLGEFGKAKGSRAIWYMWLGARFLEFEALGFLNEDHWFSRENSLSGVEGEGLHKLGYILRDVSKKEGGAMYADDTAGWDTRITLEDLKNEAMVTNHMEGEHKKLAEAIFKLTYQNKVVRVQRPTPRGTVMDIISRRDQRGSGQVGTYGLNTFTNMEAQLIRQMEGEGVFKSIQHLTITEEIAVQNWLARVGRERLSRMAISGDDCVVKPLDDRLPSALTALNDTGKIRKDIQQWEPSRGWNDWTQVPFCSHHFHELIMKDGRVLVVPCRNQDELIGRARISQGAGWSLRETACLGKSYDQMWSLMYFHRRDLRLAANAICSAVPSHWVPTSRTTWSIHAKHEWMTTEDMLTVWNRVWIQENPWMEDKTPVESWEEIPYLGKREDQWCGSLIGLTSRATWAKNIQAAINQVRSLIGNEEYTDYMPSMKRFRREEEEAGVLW

Structure (SMILES): Cc1ccccc1-c1nc(CN2CCC(C(=O)O)CC2)c(C)o1
- AC50 [1]: 20.8 µM (active)

Structure (SMILES): O=C(CSc1nnc(-c2ccncc2)n1-c1ccc(F)cc1)NC(=O)NCc1ccco1
- IC50 [2]: 8.38 µM (active)

Structure (SMILES): CCCC(NC(=O)Cc1c(C)c2cc3c(C)c(C)oc3c(C)c2oc1=O)C(=O)N[C@@H](Cc1ccccc1)C(=O)O (stereo partly drawn)
- IC50 [2]: 3.57 µM (active)

Structure (SMILES): O=C(/C=C/c1ccc2c(c1)OCO2)NCCSCc1ccc(Cl)cc1Cl
- EC50 [3]: 4.94 µM (active)

Structure (SMILES): Cc1cc(Oc2nc3c(C)cccn3c(=O)c2/C=C(\C#N)S(=O)(=O)c2ccc(Cl)cc2)ccc1Cl
- EC50 [4]: 7.18 µM (active)
- AC50 [1]: 28.9 µM (active)
- EC50 [5]: 6.7 µM (active)

Structure (SMILES): Cc1ncoc1C(=O)Nc1ccc(Oc2ccccc2)cc1
- IC50 [6]: 13.2 µM (active)

Structure (SMILES): O=C(Nc1cccc([N+](=O)[O-])c1)Nc1cccc([N+](=O)[O-])c1
- IC50 [2]: 8.46 µM (active)

Structure (SMILES): CCCN(CCC)c1nc(O)nc(N(CCC)CCC)n1
- IC50 [6]: 3.63 µM (active)

Structure (SMILES): O=C(O)c1ccc(Cl)c(S(=O)(=O)Nc2ccccc2C(=O)Nc2ccc(Cl)cc2)c1
- IC50 [7]: 34 µM (active)

Structure (SMILES): Cc1cc(C)nc(SCc2nnc(SCC(=O)Nc3ccc(C)c(C)c3)n2Cc2ccco2)n1
- EC50 [3]: 4.05 µM (active)

Structure (SMILES): Oc1ccccc1Nc1nc(NCC2CCCO2)c2ccccc2n1 (stereo not drawn)
- CC50 [8]: 30.4 µM (active)

Structure (SMILES): CC(C)(C)Cc1nc2ccccc2n1CCc1ccccc1
- EC50 [9]: > 260 µM (inactive)
- EC50 [3]: 7.13 µM (active)
- EC50 [10]: 1.06 µM (active)

Structure (SMILES): CCOc1cc(CNc2ccccc2)cc(Br)c1OCC(=O)NC(C)(C)C
- EC50 [3]: 15.4 µM (active)

Structure (SMILES): CCCC(C(=O)O)N1C(=O)/C(=C2\C(=O)N(C)c3ccccc32)SC1=S (stereo not drawn)
- IC50 [7]: 30.4 µM (active)

Structure (SMILES): COc1cc2c(cc1NC(=O)COC(=O)[C@@H](NC(=O)c1ccccc1)C(C)C)oc1ccccc12
- AC50 [1]: 33.8 µM (active)

Structure (SMILES): COC(=O)c1ccc(N2NC(=O)/C(=C/c3cc(OC)c(OC)c(OC)c3)C2=O)cc1
- IC50 [7]: 46.6 µM (active)

Structure (SMILES): Cc1ccc(C)c(N2CCN(C(=O)Cc3cn(C)c4ccccc34)CC2)c1
- EC50 [3]: 9.19 µM (active)

Structure (SMILES): COc1ccc(C(=O)Nc2cc(Cl)ccc2-c2nnn[nH]2)cc1
- IC50 [11]: 10.9 µM (active)

Structure (SMILES): COc1ccc(C(=O)Nc2cc(Br)ccc2C(=O)O)cc1
- IC50 [11]: 6.94 µM (active)

Structure (SMILES): COc1ccc2c(c1)CN(c1cc(Cl)ccc1C(=O)O)C2=O
- IC50 [11]: > 25 µM (inactive)

Structure (SMILES): O=C(CCS(=O)(=O)c1ccc(Br)cc1)NC1CCCCCC1
- IC50 [2]: 7.42 µM (active)

Structure (SMILES): O=C(Nc1cc(Cl)ccc1C(=O)O)c1cocn1
- IC50 [11]: > 25 µM (inactive)

Structure (SMILES): COc1ccc(NC(=O)c2ccccc2SCc2ccccc2)cc1
- IC50 [11]: > 25 µM (inactive)

Structure (SMILES): Cc1ccc(OCCSC2=NN2c2cc(C)nc(N)n2)cc1
- IC50 [6]: 14.8 µM (active)

Structure (SMILES): Nc1sc(-c2ccccc2)cc1C(=O)N/N=C/c1ccc(Cl)cc1
- CC50 [12]: > 50 µM (active)
- EC50 [13]: 3.46 µM (active)
- EC50 [14]: > 150 µM (not active)
- EC50 [15]: 4.54 µM (active)
- IC50 [16]: 35.7 µM (active)

Structure (SMILES): CC[C@H]1OC(=O)[C@H](C)[C@@H](O[C@H]2C[C@@](C)(OC)[C@@H](O)[C@H](C)O2)[C@H](C)[C@@H](O[C@@H]2O[C@H](C)C[C@H](N(C)C)[C@H]2O)[C@](C)(OC)C[C@@H](C)C(=O)[C@H](C)[C@@H](O)[C@]1(C)O [CLARITHROMYCIN]
- EC50 [13]: < 0.06 µM (active)
- AC50 [1]: 23.1 µM (active)
- EC50 [15]: < 0.06 µM (active)

Structure (SMILES): CCn1cc(C(=O)O)c(=O)c2cc(F)c(N3CCNCC3)nc21 [ENOXACIN]
- AC50 [1]: 1.07 µM (active)
- AC50 [17]: inconclusive

Reference: ChEMBL document CHEMBL1201862, “PubChem BioAssay data set” (2004)
